Experimental findings from patent US11596639B2, “Substituted indole Mcl-1 inhibitors” (Vanderbilt University, priority 2016, dated 2023) are described below.

One assay has as its target Mcl-1 (Homo sapiens (Human), UniProt Q07820). Description: Fluorescence polarization anisotropy (FPA) competition assay, FITC-Bak or FITC-Bim BH3 peptide. The format is binding. The following applies: read-out: Ki for Inhibition of Mcl-1 by FPA assay.
For assay [1], the system named is H929 human cancer cell lines. The assay can be described thus: Cellular viability / proliferation (Cell TiterGlo, 72 h). The format is cell-based. In outline:
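Plating is at 1,000 cells/well in 10% FBS medium; after 24 h, compound is added as a 2-fold series starting at 50 μM with under 1% DMSO.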

[2] abbreviates: Homo sapiens, NCI-H929, 72 h, read-out: GI50 on cellular proliferation of H929 human cancer cell lines, H929 cells, 72 h, Cell TiterGlo, 10% FBS.

Like-named read-outs stand apart in the source and are kept apart here.

Chain of Mcl-1 (Q07820 172-327): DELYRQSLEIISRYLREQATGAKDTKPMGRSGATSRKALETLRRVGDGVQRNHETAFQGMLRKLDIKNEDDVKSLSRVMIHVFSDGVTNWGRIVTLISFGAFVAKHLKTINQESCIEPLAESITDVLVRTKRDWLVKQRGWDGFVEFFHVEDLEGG

In the case of `CCn1ccc2c(C(=O)O)cc(N3C[C@@H](C)n4c(c(CCCOc5cc(C)c(Cl)c(C)c5)c5ccc(Cl)c(-c6c(C)nn(C)c6C)c54)C3=O)cc21` [Example 99, (R)-6-(7-chloro-10-(3-(4-chloro-3,5-dimethylphenoxy)propyl)-4-methyl-1-oxo-6-(1,3,5-trimethyl-1H-pyrazol-4-yl)-3,4-dihydropyrazino[1,2-a]indol-2(1H)-yl)-1-ethyl-1H-indole-4-carboxylic acid], the Ki on Mcl-1 is under 1 nM. The GI50 in assay [1] (H929 cells, 72 h, Cell TiterGlo, 10% FBS, read-out: GI50 on cellular proliferation of H929 human cancer cell lines) worked out at 2100 nM.
Consider `Cc1cc(OCCCc2c3n(c4c(-c5c(C)nn(C)c5C)c(Cl)ccc24)[C@H](C)CN(c2cc(C(=O)O)cc4[nH]ccc24)C3=O)cc(C)c1Cl` [Example 100, (R)-4-(7-chloro-10-(3-(4-chloro-3,5-dimethylphenoxy)propyl)-4-methyl-1-oxo-6-(1,3,5-trimethyl-1H-pyrazol-4-yl)-3,4-dihydropyrazino[1,2-a]indol-2(1H)-yl)-1H-indole-6-carboxylic acid], for which the inhibition constant Ki on Mcl-1 was under 1 nM. Also, the GI50 in assay [1] (setting [2]) was determined as 5800 nM.
Regarding `Cc1cc(OCCCc2c3n(c4c(-c5c(C)nn(C)c5C)c(Cl)ccc24)[C@H](C)CN(c2cc(C(=O)O)c4cc[nH]c4c2)C3=O)cc(C)c1Cl` [Example 101, (R)-6-(7-chloro-10-(3-(4-chloro-3,5-dimethylphenoxy)propyl)-4-methyl-1-oxo-6-(1,3,5-trimethyl-1H-pyrazol-4-yl)-3,4-dihydropyrazino[1,2-a]indol-2(1H)-yl)-1H-indole-4-carboxylic acid], the Ki at Mcl-1 is under 1 nM. In addition, the GI50 in assay [1] (setting [2]) turned out to be 2100 nM.
On the same counts, the results for `Cc1cc(OCCCc2c3n(c4c(-c5c(C)nn(C)c5C)c(Cl)ccc24)[C@H](C)CN(c2ccc4nc(C(=O)O)ccc4c2)C3=O)cc(C)c1Cl` [Example 102, (R)-6-(7-Chloro-10-(3-(4-chloro-3,5-dimethylphenoxy)propyl)-4-methyl-1-oxo-6-(1,3,5-trimethyl-1H-pyrazol-4-yl)-3,4-dihydropyrazino[1,2-a]indol-2(1H)-yl)quinoline-2-carboxylic acid] are 1.5 nM and 4900 nM.
Regarding `CCn1cc(C(=O)O)c2cccc(N3C[C@@H](C)n4c(c(CCCOc5cc(C)c(Cl)c(C)c5)c5ccc(Cl)c(-c6c(C)nn(C)c6C)c54)C3=O)c21` [Example 103, (R)-7-(7-Chloro-10-(3-(4-chloro-3,5-dimethylphenoxy)propyl)-4-methyl-1-oxo-6-(1,3,5-trimethyl-1H-pyrazol-4-yl)-3,4-dihydropyrazino[1,2-a]indol-2(1H)-yl)-1-ethyl-1H-indole-3-carboxylic acid], on Mcl-1, the Ki is under 1 nM. Moreover, the GI50 in assay [1] (setting [2]) was found to be 480 nM.
In the same order, the values of `CCn1cc(N2C[C@@H](C)n3c(c(CCCOc4cc(C)c(Cl)c(C)c4)c4ccc(Cl)c(-c5c(C)nn(C)c5C)c43)C2=O)c2ccc(C(=O)O)cc21` [Example 104, (R)-3-(7-Chloro-10-(3-(4-chloro-3,5-dimethylphenoxy)propyl)-4-methyl-1-oxo-6-(1,3,5-trimethyl-1H-pyrazol-4-yl)-3,4-dihydropyrazino[1,2-a]indol-2(1H)-yl)-1-ethyl-1H-indole-6-carboxylic acid] are under 1 nM and 570 nM.
Take `Cc1cc(OCCCc2c3n(c4c(-c5c(C)nn(C)c5C)c(Cl)ccc24)[C@H](C)CN(c2cccc4cc(C(=O)O)cnc24)C3=O)cc(C)c1Cl` [Example 105, (R)-8-(7-Chloro-10-(3-(4-chloro-3,5-dimethylphenoxy)propyl)-4-methyl-1-oxo-6-(1,3,5-trimethyl-1H-pyrazol-4-yl)-3,4-dihydropyrazino[1,2-a]indol-2(1H)-yl)quinoline-3-carboxylic acid]: the Ki at Mcl-1 is under 1 nM. In addition, the GI50 in assay [1] (setting [2]) is 270 nM.
Regarding `Cc1cc(OCCCc2c3n(c4c(-c5c(C)nn(C)c5C)c(Cl)ccc24)[C@H](C)CN(c2cn(C)c4cccc(C(=O)O)c24)C3=O)cc(C)c1Cl` [Example 106, (R)-3-(7-Chloro-10-(3-(4-chloro-3,5-dimethylphenoxy)propyl)-4-methyl-1-oxo-6-(1,3,5-trimethyl-1H-pyrazol-4-yl)-3,4-dihydropyrazino[1,2-a]indol-2(1H)-yl)-1-methyl-1H-indole-4-carboxylic acid], the inhibition constant Ki at Mcl-1 is under 1 nM. In addition, in assay [1] (setting [2]), the GI50 is 790 nM.
As for `Cc1cc(OCCCc2c3n(c4c(-c5c(C)n[nH]c5C)c(Cl)ccc24)[C@H](C)CN(c2cn(C)c4cc(C(=O)O)ccc24)C3=O)cc(C)c1Cl` [Example 109, (R)-3-(7-chloro-10-(3-(4-chloro-3,5-dimethylphenoxy)propyl)-6-(3,5-dimethyl-1H-pyrazol-4-yl)-4-methyl-1-oxo-3,4-dihydropyrazino[1,2-a]indol-2(1H)-yl)-1-methyl-1H-indole-6-carboxylic acid], the inhibitory constant (Ki) at Mcl-1 was under 1 nM. For the same compound, the GI50 in assay [1] (setting [2]) is 710 nM.
`Cc1cc(OCCCc2c3n(c4c(-c5c(C)nn(C)c5C)c(Cl)ccc24)[C@H](C)CN(c2ccc4cc(C(=O)O)n(C)c4c2)C3=O)cc(C)c1Cl` [Example 110, (R)-6-(7-Chloro-10-(3-(4-chloro-3,5-dimethylphenoxy)propyl)-4-methyl-1-oxo-6-(1,3,5-trimethyl-1H-pyrazol-4-yl)-3,4-dihydropyrazino[1,2-a]indol-2(1H)-yl)-1-methyl-1H-indole-2-carboxylic acid]: at Mcl-1, the Ki was under 1 nM. Moreover, the GI50 in assay [1] (setting [2]) is 790 nM.
In the same order, the values of `Cc1cc(OCCCc2c3n(c4c(-c5c(C)nn(C)c5C)c(Cl)ccc24)[C@H](C)CN(c2nc(C(=O)O)c4ccccn24)C3=O)cc(C)c1Cl` [Example 111, (R)-3-(7-chloro-10-(3-(4-chloro-3,5-dimethylphenoxy)propyl)-4-methyl-1-oxo-6-(1,3,5-trimethyl-1H-pyrazol-4-yl)-3,4-dihydropyrazino[1,2-a]indol-2(1H)-yl)imidazo[1,5-a]pyridine-1-carboxylic acid] are under 1 nM and 2600 nM.
On to `Cc1cc(OCCCc2c3n(c4c(-c5c(C)nn(C)c5C)c(Cl)ccc24)[C@H](C)CN(c2cn4cccc(C(=O)O)c4n2)C3=O)cc(C)c1Cl` [Example 112, (R)-2-(7-chloro-10-(3-(4-chloro-3,5-dimethylphenoxy)propyl)-4-methyl-1-oxo-6-(1,3,5-trimethyl-1H-pyrazol-4-yl)-3,4-dihydropyrazino[1,2-a]indol-2(1H)-yl)imidazo[1,2-a]pyridine-8-carboxylic acid], for which, at Mcl-1, the Ki was 3.3 nM. Also, the GI50 in assay [1] (setting [2]) came out at 5300 nM.
On to `Cc1cc(OCCCc2c3n(c4c(-c5c(C)nn(C)c5C)c(Cl)ccc24)[C@H](C)CN(c2cccc4c2cc(C(=O)O)n4C)C3=O)cc(C)c1Cl` [Example 113, (R)-4-(7-Chloro-10-(3-(4-chloro-3,5-dimethylphenoxy)propyl)-4-methyl-1-oxo-6-(1,3,5-trimethyl-1H-pyrazol-4-yl)-3,4-dihydropyrazino[1,2-a]indol-2(1H)-yl)-1-methyl-1H-indole-2-carboxylic acid], for which the Ki at Mcl-1 is under 1 nM. In addition, in assay [1] (setting [2]), the GI50 is 330 nM.
On the same counts, the results for `Cc1cc(OCCCc2c3n(c4c(-c5c(C)nn(C)c5C)c(Cl)ccc24)[C@H](C)CN(c2ccc4c(c2)cc(C(=O)O)n4C)C3=O)cc(C)c1Cl` [Example 114, (R)-5-(7-Chloro-10-(3-(4-chloro-3,5-dimethylphenoxy)propyl)-4-methyl-1-oxo-6-(1,3,5-trimethyl-1H-pyrazol-4-yl)-3,4-dihydropyrazino[1,2-a]indol-2(1H)-yl)-1-methyl-1H-indole-2-carboxylic acid] are under 1 nM and 840 nM.
For the compound `Cc1cc(OCCCc2c3n(c4c(-c5c(C)nn(C)c5C)c(Cl)ccc24)[C@H](C)CN(c2ccc4cnoc4c2)C3=O)cc(C)c1Cl` [Example 115, (R)-2-(benzo[d]isoxazol-6-yl)-7-chloro-10-(3-(4-chloro-3,5-dimethylphenoxy)propyl)-4-methyl-6-(1,3,5-trimethyl-1H-pyrazol-4-yl)-3,4-dihydropyrazino[1,2-a]indol-1(2H)-one], the Ki at Mcl-1 was determined as 3.1 nM. Further, the GI50 in assay [1] (setting [2]) amounted to 5100 nM.
On the same counts, the results for `Cc1cc(OCCCc2c3n(c4c(-c5c(C)nn(C)c5C)c(Cl)ccc24)[C@H](C)CN(c2ccc4c(c2)c(C(=O)O)nn4C)C3=O)cc(C)c1Cl` [Example 116, (R)-5-(7-Chloro-10-(3-(4-chloro-3,5-dimethylphenoxy)propyl)-4-methyl-1-oxo-6-(1,3,5-trimethyl-1H-pyrazol-4-yl)-3,4-dihydropyrazino[1,2-a]indol-2(1H)-yl)-1-methyl-1H-indazole-3-carboxylic acid] are under 1 nM and 9700 nM.
`CCn1nc2c(N3C[C@@H](C)n4c(c(CCCOc5cc(C)c(Cl)c(C)c5)c5ccc(Cl)c(-c6c(C)nn(C)c6C)c54)C3=O)cccc2c1C(=O)O` [Example 117, (R)-7-(7-chloro-10-(3-(4-chloro-3,5-dimethylphenoxy)propyl)-4-methyl-1-oxo-6-(1,3,5-trimethyl-1H-pyrazol-4-yl)-3,4-dihydropyrazino[1,2-a]indol-2(1H)-yl)-2-ethyl-2H-indazole-3-carboxylic acid]: the inhibitory constant (Ki) at Mcl-1 was under 1 nM. Moreover, the GI50 in assay [1] (setting [2]) was 390 nM.
On the same counts, the results for `CCn1nc(C(=O)O)c2cccc(N3C[C@@H](C)n4c(c(CCCOc5cc(C)c(Cl)c(C)c5)c5ccc(Cl)c(-c6c(C)nn(C)c6C)c54)C3=O)c21` [Example 118, (R)-7-(7-chloro-10-(3-(4-chloro-3,5-dimethylphenoxy)propyl)-4-methyl-1-oxo-6-(1,3,5-trimethyl-1H-pyrazol-4-yl)-3,4-dihydropyrazino[1,2-a]indol-2(1H)-yl)-1-ethyl-1H-indazole-3-carboxylic acid] are under 1 nM and 820 nM.
